Test results taken from patent publication US11559513B2, “PTGDR-1 and/or PTGDR-2 antagonists for preventing and/or treating systemic lupus erythematosus” (INSTITUT NATIONAL DE LA SANTE ET DE LA RECHERCHE MEDICALE …, priority 2015, dated 2023).

How the values were obtained:
[1] = tested on: WT mouse spleen basophils (splenocytes); assay: CXCR4 expression on mouse spleen basophils ex vivo; type: cell-based; details: for CXCR4 expression on other WT splenocytes including T and B cells: data not shown; for CXCR4 expression on spleen WT basophils ex vivo: specific agonists, 24 hours ex vivo
From the text: (a) Ex vivo migration of basophils from whole WT or Lyn^−/− splenocytes to CXCL12. (b) CXCR4 expression levels on basophils from the indicated compartments in aged WT (n=16) and Lyn^−/− (n=14) animals. Data are normalized to the mean CXCR4 expression level of WT blood basophils. Statistical analyses placed directly above each bar compared the value for one given compartment to the blood compartment of the corresponding genotype. Statistical analyses between both genotypes for each compartment are also indicated. (c) Basophil number per peritoneum in young WT mice 24 hours after intraperitoneal (ip) injection of PBS or CXCL12 and compared to steady state (−) values (n=13/15/5, respectively). (d) CXCR4 expression levels on basophils from mesenteric lymph nodes (mLN) of young Lyn^−/− mice 24 hours after PBS or PGD2 ip injection normalized to PBS injected mice values' mean. (e) Basophil number in mLN of young Lyn^−/− mice 24 hours after ip injection of the indicated compound(s). (f) CXCR4 expression levels on spleen basophils from 15 weeks old WT mice incubated ex vivo for 24 hours with the indicated compound and normalized to the control values' mean. […] Basophils number and CXCR4 expression were assessed by flow cytometry. Statistical analyses were by unpaired t test with Welch's correction (a-e) and by paired Student t test (f).
(a-b) Relative CXCR4 expression levels on basophils (defined as CD19^−TCRβ^−CD3^−CD49b+FcεRIα^+CD123^+)CD45^lo and T cells (defined as CD45^+CD3^+TCRβ^+ cells) in splenocytes incubated 4 hours without (−) or with the indicated concentration of N6,2′-O-dibutyryl-adenosine 3′:5′-cyclic monophosphate (db-cAMP) or 1 μM PGD2 as determined by flow cytometry. Statistical analyses were by paired Student t tests. NS: not significant, *: P<0.05, **: P<0.01, ***: P<0.001. (c) Relative CXCR4 expression levels on spleen basophils (defined as in (a)) incubated 4 hours without (0) or with the indicated concentration (nM) of the indicated compound(s). DK-PGD2: 13,14-dihydro-15-keto-PGD2 (PTGDR-2 specific agonist); BW245c: 3-(3-Cyclohexyl-3-hydroxypropyl)-2,5-dioxo-(R*,S*)-(±)-4-imidazolineheptanioc acid (PTGDR-1 specific agonist) as determined by flow cytometry. Statistical analysis was by two-ways ANOVA followed by a Tukey's multiple comparisons test. (a-c) Data are normalized to control value mean (per group, n=4 to 8). Data are expressed as mean+s.e.m. All experiments were realized with splenocytes from 8-12 weeks old WT mice.
(§1) Human basophils and mouse splenocytes were cultured in culture medium (RPMI 1640 with Glutamax and 20 mM HEPES, 1 mM Na-pyruvate, non-essential amino acids 1× (all from Life Technologies, Saint-Aubin, France), 100 μg/ml streptomycin and 100 U/ml penicillin (GE Healthcare, Vélizy, France) and 37.5 μM β-mercaptoethanol (Sigma-Aldrich, MO)) supplemented with 20% heat-inactivated fetal calf serum at 37° C. and 5% CO2. 18 hours-long stimulation prior to migration assays were done in culture medium at 1×10^6 cells per mL by adding 1 nM of IL-3 (Peprotech), 1 μM of prostaglandin D2 (PGD2), 1 μM of the PTGDR-1 specific agonist BW245c, 1 μM of the PTGDR-2 specific agonist 13,14-dihydro-15-keto Prostaglandin D2 (DK-PGD2) (all from Cayman chemicals) or 5 ng/mL of anti-IgE (mouse anti-human IgE or rat anti-mouse IgE, both from Thermo Scientific). All cells were washed twice before any migration assay. Control conditions were always with the same vehicle concentration as stimulated conditions.

Lyn−/− mice = assay: PGD2-induced basophil in vivo migration assay; parameters: species or system mouse
CXCR4 = CXCR4 (Homo sapiens, UniProt P61073); details: cited from earlier work
purified human basophils = assay: 18 hours stimulation of purified human basophils, marker expression and migration towards CXCL12; type: cell-based
From the text: Human basophils were purified to >95% by negative selection with the Human Basophils Enrichment kit (Stemcell Technologies, Grenoble, France) for culture, stimulation and chemotaxis experiments. In some chemotaxis experiments, human basophils were enriched to 3-5% by negative selection with the Human PE positive selection kit (Stemcell Technologies) by using a cocktail of PE-conjugated anti-CD3, CD19 and CD89 (BioLegend). These kits were used following manufacturer instructions.
as §1
Migration assays were performed in culture medium supplemented with 0.1% bovine serum albumin (BSA, Sigma-Aldrich) in Transwell 5 μm polycarbonate permeable support 6.5 mm inserts (Corning, N.Y., N.Y.) for 3 hours at 37° C. and 5% CO2 with 1×10^5 purified basophils or 2×10^5 enriched basophils at 1×10^6 cells per mL. Purified or enriched basophils from the upper and bottom chambers were counted at the end of the assay. Basophil content and phenotype was determined by flow cytometry by analyzing more than 100 basophils. Purification or enrichment of human basophils didn't show any difference in the measured migration for all tested chemokines. Migration was defined as the ratio between the number of basophils in the bottom chamber and the number of basophils in the upper plus the bottom chambers. Spontaneous migration was defined as the migration observed without any chemokine in the bottom chamber. Corrected migration was defined as the difference between specific and spontaneous migration. For migration assays the following concentrations (known to be optimal) were used for each compound: Human IL-3: 300 pM (Peprotech), human CCL3, CCL5, and CXCL12: 50 nM; CXCL2 (all from BioLegend) and PGD2 (Cayman chemicals): 100 nM. Migration to human CCL3, CCL5, CXCL2, and PGD2 was done in the presence of IL-3 at 300 pM in both chambers. Migration with IL-3 represents chemokinetism: IL-3 was added in both chambers to the same concentration and compared to the spontaneous migration observed without IL-3. Effects of 24 hours incubation with IL-3 or PGD2 (as described above) on basophil apoptosis were estimated by using the FITC Annexin V Apoptosis Detection Kit from BD Biosciences and used accordingly to manufacturer's instructions.

12 weeks old Lyn−/− mice = assay: Acceleration of lupus-like disease development by repeated PGD2 injections
From the text: (a,b) Proportion of basophils (CD19^−TCRβ^−CD49b^+FcεRIα^+CD123^+)CD45^lo) among singlets living CD45^+ cells in mesenteric (a) and other (cervical, brachial and inguinal) lymph nodes (b) from 10 to 12 weeks-old Lyn^−/− mice injected over ten days with PBS (open circles) or PGD2 alone (open squares), and PGD2 injected and basophil depleted (MAR-1) (open diamonds) or not (IgG) (open triangles) as described in the methods. (c) IA-IE expression levels on LN basophils from mice as in (b). […] (d,e) Proportion of short lived plasma cells CD19^+CD138^+ among singlets living CD45^+ cells in spleen (d) and lymph nodes (e) in the same mice as in (b). (f) Representative immunofluorescence staining for C3 and IgG deposits in kidneys from mice as indicated in (b) (scale bar=1 mm) and their corresponding quantifications in PBS (n=3), PGD2 (n=4), PGD2+control IgG (n=3) and PGD2+MAR-1 (n=3) injected mice. (g) Fold increase in urine albumin/creatinine ratio before and after PBS or PGD2 10 days-long treatment. (a-e) Basophil, plasma cell numbers and IA-IE expression levels were assessed by flow cytometry. (a-g) Data are expressed as means±s.e.m. […] One representative out of three independent experiments is shown.
For acceleration of disease development by PGD2 injections, 12 weeks old Lyn^−/− mice were injected ip with 20 nmoles of PGD2 or vehicle in PBS, every two days for 10 days, for a total of 6 injections. Mice were analyzed the day following the last injection. […] Cell viability was assessed by the utilization of Ghost Dye Violet 510 (Tonbo, San Diego, Calif.).
Quantification of C3 and IgG deposits was realized by using ImageJ software (v1.49p, NIH, USA). A minimum of 20 glomeruli was quantified per kidney. For assessment of kidney function the albumin/creatinine ratio (ACR) was determined. Urine was collected from each mouse before and after treatment. The albumin concentration was measured with a mouse albumin ELISA (Bethyl laboratories, Montgomery, Tex.). A creatinine assay (R&D systems, Minneapolis, Minn.) was used to determine urine creatinine concentrations. Results are expressed as a fold increase corresponding to the ratio of the ACR after/before treatment.

WT mice = assay: CXCL12-induced basophil in vivo migration assay; parameters: species or system mouse; details: intraperitoneal injection, 24 hours
[2] = ip every two days over ten days

Chain of CXCR4 (P61073 whole entry, species assumed): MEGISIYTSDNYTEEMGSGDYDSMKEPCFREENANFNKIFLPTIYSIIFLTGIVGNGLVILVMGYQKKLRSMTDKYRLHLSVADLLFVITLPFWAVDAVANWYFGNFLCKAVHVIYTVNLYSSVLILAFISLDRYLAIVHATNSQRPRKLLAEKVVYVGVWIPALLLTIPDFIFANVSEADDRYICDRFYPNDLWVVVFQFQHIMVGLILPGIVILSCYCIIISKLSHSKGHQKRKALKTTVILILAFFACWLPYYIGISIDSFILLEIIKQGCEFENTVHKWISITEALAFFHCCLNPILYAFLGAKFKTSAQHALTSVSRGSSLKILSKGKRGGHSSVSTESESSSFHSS

For `O=C(O)CCCCCCC1C(=O)NC(=O)N1CCC(O)C1CCCCC1` (racemic) [BW245c, 3-(3-Cyclohexyl-3-hydroxypropyl)-2,5-dioxo-(R*,S*)-(±)-4-imidazolineheptanioc acid], the “CXCR4 expression on other WT splenocytes including T and B cells” value [1] was “significant but much lower increase” and the “CXCR4 expression on spleen WT basophils ex vivo” value [1] was “up-regulation”.

In the case of `c1cc(CN2CCCNCCNCCCNCC2)ccc1CN1CCCNCCNCCCNCC1` [AMD3100], the “PGD2-induced basophil recruitment in SLOs and peritoneum” value (Lyn−/− mice; co-injection with PGD2, ip) is given as “completely abolished” and the “known effects of CXCR4 antagonism” value (CXCR4) is given as “induce a release of hematopoietic stem cells and interfere with homeostatic functions”.

In the case of `CCCCCC(=O)CCC1C(=O)CC(O)C1C/C=C\CCCC(=O)O` (stereo not shown) [DK-PGD2, 13,14-dihydro-15-keto-PGD2], the “CXCR4 expression on other WT splenocytes including T and B cells” value [1] is reported as “significant but much lower increase” and the “CXCR4 expression on spleen WT basophils ex vivo” value [1] is reported as “up-regulation”.

For `CCCCC[C@H](O)/C=C/[C@H]1C(=O)C[C@H](O)[C@@H]1C/C=C\CCCC(=O)O` [PGD2, 9α,15S-dihydroxy-11-oxo-prosta-5Z,13E-dien-1-oic acid], the “CXCR4 expression on mLN basophils” value (Lyn−/− mice; i.p. injection, 24 hours) was “increased”, the “basophil accumulation in SLOs and peritoneum” value (Lyn−/− mice; i.p. injection, 24 hours) was “drove their accumulation” and the “peripheral basopenia compared to steady state” value (Lyn−/− mice; ip injection, data not shown) was “significant, but transient”. For the same molecule, the basophil apoptosis (purified human basophils; 1 μM, data not shown) was “without inducing”, the “CXCR4 expression on basophils” value (purified human basophils; 18 hours priming, 1 μM PGD2 or sub-optimal anti-IgE) was “enhanced” and the PTGDR-2 internalization (purified human basophils; 18 hours, 1 μM, data not shown) was “induced”. For the same molecule, the “FcεRIα expression on basophil surface” value (purified human basophils; PGD2 priming, data not shown) was “slight increase”, the “migration towards CXCL12” value (purified human basophils; after 18 hours priming) was “enhanced” and the “CXCR4 externalization by T cells” value ([1]; 1 μM, 4 hours ex vivo) was “unable”. The “CXCR4 surface expression of other immune cell types” value (12 weeks old Lyn−/− mice; data not shown) was “didn't show any significant increase”, the albuminuria (12 weeks old Lyn−/− mice; end of protocol, versus PBS-injected) was “increased albuminuria” and the “CD19+CD138+ plasma cells in SLOs” value (12 weeks old Lyn−/− mice; [2]) was “increased proportion”. For the same molecule, the “IA-IE expression on basophils” value (12 weeks old Lyn−/− mice; [2]) was “increased”, the “basophil accumulation in SLOs” value (12 weeks old Lyn−/− mice; [2]) was “accumulated systemically” and the “immune complexes in the kidney (C3 and IgG deposition)” value (12 weeks old Lyn−/− mice; [2]) was “increased deposition”. For the same molecule, the “basophil CXCR4 expression levels” value (12 weeks old Lyn−/− mice; ip every two days over ten days, data not shown) was “increased”.

For `CCCC(=O)Nc1ncnc2c1ncn2[C@@H]1O[C@@H]2COP(=O)(O)O[C@H]2[C@H]1OC(=O)CCC` [db-cAMP, N6,2′-O-dibutyryl-adenosine 3′:5′-cyclic monophosphate], the “CXCR4 externalization by mouse WT spleen basophils” value ([1]; 4 hours ex vivo) was “externalized” and the “sensitivity of basophils versus T cells to the compound (CXCR4 externalization)” value ([1]; 4 hours ex vivo) was 100 fold.

With “CXCL2: chemokine known to have an effect on basophils” the “increased CXCR4 externalization ex vivo as PGD2 did” value (purified human basophils; data not shown) was “None”.

For “CXCL12: C—X—C motif Ligand 12, chemokine; murine CXCL12 injected ip”, the “in vivo basophil migration to the injection site and draining mesenteric lymph nodes” value (WT mice) was “induced”.

B1: CCL3: chemokine known to have an effect on basophils (protein, UniProt P10147 24-92, looked up)
C-C motif chemokine 3: SLAADTPTACCFSYTSRQIPQNFIADYFETSSQCSKPGVIFLTKRSRQVCADPSEEWVQKYVSDLELSA
With B1 the “increased CXCR4 externalization ex vivo as PGD2 did” value (purified human basophils; data not shown) was “None”.

B2: CCL5: chemokine known to have an effect on basophils (protein, UniProt P13501 24-91, looked up)
C-C motif chemokine 5: SPYSSDTTPCCFAYIARPLPRAHIKEYFYTSGKCSNPAVVFVTRKNRQVCANPEKKWVREYINSLEMS
In the case of B2, the “increased CXCR4 externalization ex vivo as PGD2 did” value (purified human basophils; data not shown) is reported as “None”.
